Measurements: US4195183A, “ω-Nor-aromatic-13,14-dehydro-prostaglandins and process for their preparation” (Farmitalia Certo Erba S.p.A., priority 1976, dated 1980)

What was measured:
[1] = system: guinea pig ileum; assay: guinea pig ileum test (in vitro); settings: relative to PGF2α (conventional value 1), limits in brackets
Experimental: (§1) In the Table the conventional value of 1 was given to the activity of PGF2α in both tests.
*In a 10 ml thermostatic bath held at 35° C., ilea of male guinea
pigs, under 0.5 g traction, were subjected to carbondioxide in a Tyrode
solution; the preparation was left for 30 minutes to stabilize before the
compounds were tested. The response was recorded using a isotonic frontal
lever, long enough to amplify the response 4.5 times.

[2] = system: oestrogenized rat uteri; assay: rat uterus test (in vitro); settings: relative to PGF2α (conventional value 1), limits in brackets
Experimental: as §1
**In a 10 ml thermostatic bath held at 29° C., oestrogenized rat
uteri under 0.5 g traction were subjected to carbondioxide in a Dejalon
saline solution. The prepration was left to stabilize for 30 minutes
before the compounds were tested. Response was measured using a isotonic
frontal lever, long enough to amplify the response 4.5 times.

[3] = system: pregnant rat; assay: luteolytic activity in the pregnant rat; assay type: in vivo; settings: pregnant rat at the 9th-10th day of pregnancy; relative to PGF2α (conventional value 1)
Text: The action selectivity of the compounds of the invention on the miometrium and on the reproductive apparatus is also proven by the remarkable increase of the luteolytic activity in the pregnant rat at the 9th-10th day of pregnancy. In fact, if the conventional value 1 is given to the luteolytic activity of PGF2α, the value of 100 at least is to be given to the luteolytic activity of 13,14-dehydro-17-phenyl-20,19,18-trinor-PGF2α, and the value of 200 to the luteolytic activity of 13,14-dehydro-16-p-fluorophenoxy-20,19,18,17-tetranor-PGF2α.

[4] = target: T1, 15-hydroxy-prostaglandin-dehydrogenase drawn from human placenta (Homo sapiens, UniProt P15428); assay: inhibition of 15-hydroxy-prostaglandin-dehydrogenase, in vitro; assay type: biochemical; settings: enzyme from human placenta; inhibition partially competitive with respect to PGF2α
T1 construct: drawn from human placenta; from tissue; host or cells: human placenta
T1 sequence (P15428 1-266): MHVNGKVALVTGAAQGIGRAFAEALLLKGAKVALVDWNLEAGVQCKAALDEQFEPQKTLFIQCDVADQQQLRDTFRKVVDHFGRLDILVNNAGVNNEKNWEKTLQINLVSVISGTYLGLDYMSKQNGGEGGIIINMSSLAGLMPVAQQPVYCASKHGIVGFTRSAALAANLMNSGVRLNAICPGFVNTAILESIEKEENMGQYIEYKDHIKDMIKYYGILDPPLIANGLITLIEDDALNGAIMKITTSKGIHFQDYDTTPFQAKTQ
Text: The compounds of formula (I) furthermore inhibit the use of natural prostaglandins as substrate by the same enzyme.

[5] = system: mares, cows, heifers and sowes; assay: synchronizing the estrum / haematic progesterone levels in farm animals; assay type: in vivo; settings: for haematic levels of progesterone: after administration of 0.5-3 ml of the 0.5 mg/ml solution; for ability of synchronizing the estrum: solution in aqueous isotonic buffered (pH 7.5) medium, 0.5 mg/ml, mares, cows, heifers and sowes

Row | SMILES | Guinea Pig Ileum activity, PGF2α = 1 [1] | Rat Uterus activity, PGF2α = 1 [2] | luteolytic activity, PGF2α = 1 [3] | Ki [4] [µM] | haematic levels of progesterone [5] | ability of synchronizing the estrum [5]
1 | O=C(O)CCC/C=C\CC1C(O)CC(O)C1C#CC(O)COc1cccc(C(F)(F)F)c1 (stereo not drawn) [5c-9α,11α,15S-trihydroxy-20,19,18,17-tetranor-16-m-trifluoromethylphenoxy-prost-5-en-13-ynoic acid] | 0.50 (0.05-5) | 3.86 (2.96-5.03) |  |  |  | 
2 | CCCCC[C@H](O)C#C[C@@H]1[C@@H](C/C=C\CCCC(=O)O)[C@@H](O)C[C@H]1O [13,14-dehydro-PGF2α, reference compound] | 0.6 | 1.09 |  |  |  | 
3 | CCCCC[C@H](O)/C=C/[C@@H]1[C@@H](C/C=C\CCCC(=O)O)[C@@H](O)C[C@H]1O [PGF2α, reference compound] | 1 | 1 | 1 |  |  | 
4 | O=C(O)CCC/C=C\CC1C(O)CC(O)C1C#CC(O)COc1ccc(F)cc1 (stereo not drawn) [5c-9α,11α,15S-trihydroxy-20,19,18,17-tetranor-16-p-fluorophenoxy-prost-5-en-13-ynoic acid] | 0.50 (0.05-5) | 1.91 (1.34-2.73) | 200 |  |  | 
5 | O=C(O)CCC/C=C\C[C@@H]1[C@@H](C#C[C@@H](O)CCc2ccccc2)[C@H](O)C[C@@H]1O [5c-9α,11α,15S-trihydroxy-20,19,18-trinor-17-phenyl-prost-5-en-13-ynoic acid] | 0.6 | 22.74 | ≥ 100 | 130 |  | 
6 | O=C([O-])CCC/C=C\CC1C(O)CC(O)C1C#CC(O)CCc1ccccc1.[Na+] (stereo not drawn) [13,14-dehydro-17-phenyl-20,19,18-trinor-PGF2α] |  |  |  |  | pronounced downfall | very good results
7 | O=C(O)CCC/C=C\C[C@@H]1[C@@H](/C=C/[C@@H](O)CCc2ccccc2)[C@H](O)C[C@@H]1O [17-phenyl-20,19,18-trinor-PGF2α, 5c,13t-9α,11α,15S-trihydroxy-20,19,18-trinor-17-phenyl-prosta-5,13-dienoic acid, reference compound] | 2.34 | 1.54 |  |  |  | 
8 | CO[C@H](C#C[C@@H]1[C@@H](C/C=C\CCCC(=O)O)[C@@H](O)C[C@H]1O)CCc1ccccc1 [5c-9α,11α-dihydroxy-15S-methoxy-20,19,18-trinor-17-phenyl-prost-5-en-13-ynoic acid] | 0.05 | 4.4 |  |  |  | 
9 | O=C([O-])CCC/C=C\CC1C(O)CC(O)C1C#CC(O)COc1ccc(F)cc1.[Na+] (stereo not drawn) [13,14-dehydro-16-p-fluorophenoxy-20,19,18,17-tetranor-PGF2α] |  |  |  |  | pronounced downfall | very good results
